Laboratory results published in PubChem BioAssay AID743317 (Broad Institute, 2014).
Records with an inconclusive call do not appear. Calls of active or inactive are those of the source.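 The calls were made as follows: active = fitted curve reaches 40% activation at or below the top valid dose, and every replicate test is called active; inconclusive = replicate tests disagree, some active and some inactive; inactive = all replicate tests inactive, including activity in the wrong direction.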

The compounds below were run against Endoplasmic reticulum aminopeptidase 1 (Homo sapiens) (UniProt Q9NZ08) (assay: ERAP1 aminopeptidase activity change, dose response, biochemical, fluorescence, cherry-pick (AID 743317)). Conditions: ERAP1 enzyme, Leu-AMC fluorescence, 60 min.
Endoplasmic reticulum aminopeptidase 1 (Homo sapiens), sequence (Q9NZ08 whole entry, looked up): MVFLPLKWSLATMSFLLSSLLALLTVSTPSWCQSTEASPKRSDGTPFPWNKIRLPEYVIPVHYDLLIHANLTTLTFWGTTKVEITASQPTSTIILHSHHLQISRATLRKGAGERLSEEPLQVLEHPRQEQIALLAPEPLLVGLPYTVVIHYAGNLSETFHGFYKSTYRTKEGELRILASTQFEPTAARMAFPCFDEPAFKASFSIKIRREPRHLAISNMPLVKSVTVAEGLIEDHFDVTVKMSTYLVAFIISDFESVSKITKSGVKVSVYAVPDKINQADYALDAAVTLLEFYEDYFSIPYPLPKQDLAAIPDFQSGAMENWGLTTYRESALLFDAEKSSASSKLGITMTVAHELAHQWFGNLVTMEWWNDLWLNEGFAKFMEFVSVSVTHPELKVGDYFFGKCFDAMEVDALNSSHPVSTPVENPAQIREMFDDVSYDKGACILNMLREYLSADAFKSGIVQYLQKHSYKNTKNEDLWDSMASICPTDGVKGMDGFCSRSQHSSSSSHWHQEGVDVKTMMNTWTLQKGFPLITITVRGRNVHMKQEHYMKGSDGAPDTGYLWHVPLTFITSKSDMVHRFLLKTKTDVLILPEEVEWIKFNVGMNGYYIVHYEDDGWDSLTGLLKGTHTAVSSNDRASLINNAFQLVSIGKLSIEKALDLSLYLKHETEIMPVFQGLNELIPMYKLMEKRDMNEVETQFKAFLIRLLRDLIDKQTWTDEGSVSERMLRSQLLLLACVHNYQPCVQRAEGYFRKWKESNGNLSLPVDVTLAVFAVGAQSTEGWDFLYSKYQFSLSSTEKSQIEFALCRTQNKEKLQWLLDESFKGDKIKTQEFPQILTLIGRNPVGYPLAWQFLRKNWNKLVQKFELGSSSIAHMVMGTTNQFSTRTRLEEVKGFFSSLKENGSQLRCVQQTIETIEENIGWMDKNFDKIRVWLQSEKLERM

SMILES | AC40 [nM]
Cc1ccc(S(=O)(=O)Nc2ccc3c(c2)C(=O)N([C@@H](C)CO)C[C@H](C)[C@H](CN(C)C)OCCCC[C@@H](C)O3)cc1 | 480
O=C(Nc1ccc(C(F)(F)F)cc1)N1[C@@H]2CNC[C@H]1C2c1ccc(-c2ccncc2)cc1 (some centres undefined) | 7230
C[C@H](CO)N1C[C@H](C)[C@H](CN(C)CC2CCCCC2)Oc2c(NC(=O)Nc3ccc4c(c3)OCO4)cccc2C1=O | 2550
C[C@@H]1CCCCO[C@@H](CN(C)C)[C@H](C)CN([C@@H](C)CO)C(=O)c2cc(NC(=O)Nc3ccc(C(F)(F)F)cc3)ccc2O1 | 516
C[C@@H]1CCCCO[C@@H](CN(C)Cc2ccc(C(=O)O)cc2)[C@H](C)CN([C@@H](C)CO)C(=O)c2cc(NS(=O)(=O)c3ccc(Cl)cc3)ccc2O1 | 3660
C[C@@H]1CCCCO[C@@H](CN(C)Cc2ccc3c(c2)OCO3)[C@@H](C)CN([C@@H](C)CO)C(=O)c2cc(NS(=O)(=O)c3ccccc3)ccc2O1 | 563
COc1ccc(NC(=O)Nc2ccc3c(c2)C(=O)N([C@@H](C)CO)C[C@@H](C)[C@@H](CN(C)Cc2ccc(C(=O)O)cc2)OCCCC[C@@H](C)O3)cc1 | < 80
C[C@@H]1CCCCO[C@@H](CN(C)S(C)(=O)=O)[C@@H](C)CN([C@@H](C)CO)C(=O)c2cc(NS(=O)(=O)c3ccc(Cl)cc3)ccc2O1 | 266
CCCN(C)C[C@@H]1OCCCC[C@@H](C)Oc2ccc(NS(=O)(=O)c3ccc(C)cc3)cc2C(=O)N([C@@H](C)CO)C[C@@H]1C | 133
C[C@H](CO)N1C[C@H](C)[C@@H](CN(C)C)Oc2c(NC(=O)Nc3ccc(C(F)(F)F)cc3)cccc2C1=O | 762
Cc1ccc(-c2cc(C(=O)N3CCCC3)c3ccccc3n2)s1 | 6450
C[C@H]1CN([C@@H](C)CO)C(=O)c2cccc(NC(=O)Nc3ccc4c(c3)OCO4)c2O[C@@H]1CN(C)CC1CC1 | 770
COc1cccc(CN(C)Cc2cc(=O)oc3cc(O)c(Cl)cc23)c1 | 2900
COc1ccc(CN(C)C[C@H]2OCCCC[C@@H](C)Oc3ccc(NS(=O)(=O)c4cccs4)cc3C(=O)N([C@@H](C)CO)C[C@@H]2C)cc1 | 4590
CO[C@@H]1CN(C)C(=O)c2ccc(NC(=O)Nc3cccc(Cl)c3)cc2OC[C@@H](C)NC[C@H]1C | 1410
Cc1ccc2nc3c(cc(C(=O)NCc4ccccc4)c(=N)n3CCCn3ccnc3)c(=O)n2c1 | 8840
COc1ccc(CN(C)C[C@@H]2OCCCC[C@H](C)Oc3ccc(NS(=O)(=O)c4cccs4)cc3C(=O)N([C@H](C)CO)C[C@@H]2C)cc1 | 7890
COc1ccc(CN(C)C[C@@H]2OCCCC[C@@H](C)Oc3ccc(NS(=O)(=O)c4cccs4)cc3C(=O)N([C@H](C)CO)C[C@@H]2C)cc1 | 161
C[C@@H]1CCCCO[C@@H](CN(C)CC2CCCCC2)[C@H](C)CN([C@@H](C)CO)C(=O)c2cc(NC(=O)Nc3ccccc3)ccc2O1 | 357
CNC[C@H]1Oc2c(NC(=O)Nc3ccc(C(F)(F)F)cc3)cccc2C(=O)N([C@@H](C)CO)C[C@@H]1C | 646
COc1ccc(NC(=O)Nc2ccc3c(c2)C(=O)N([C@H](C)CO)C[C@@H](C)[C@@H](CN(C)Cc2ccc(C(=O)O)cc2)OCCCC[C@@H](C)O3)cc1 | 652
CC(=O)Oc1cc2oc(=O)cc(C)c2cc1Cl | 1020
C[C@@H]1CN([C@H](C)CO)C(=O)c2cccc(NC(=O)Nc3ccccc3)c2O[C@@H]1CN(C)Cc1ccc(C(=O)O)cc1 | 3610
Cc1noc(C)c1NC(=O)N(C)C[C@@H]1Oc2c(NC(=O)Nc3ccc(F)cc3)cccc2C(=O)N([C@H](C)CO)C[C@@H]1C | 5640
C[C@@H]1CCCCO[C@@H](CN(C)CC2CC2)[C@@H](C)CN([C@H](C)CO)C(=O)c2cc(NS(=O)(=O)c3cccs3)ccc2O1 | < 80

SMILES | AC40 [nM]
O=c1cc(CN2CCOCC2)c2cc(Cl)c(O)cc2o1 | 4840
CCCN(C)C[C@@H]1OCCCC[C@@H](C)Oc2ccc(NS(=O)(=O)c3ccc(F)cc3)cc2C(=O)N([C@H](C)CO)C[C@@H]1C | 3880
COc1ccc(CN(C)C[C@@H]2OCCCC[C@@H](C)Oc3ccc(NS(=O)(=O)c4cccs4)cc3C(=O)N([C@H](C)CO)C[C@H]2C)cc1 | 1150
O=C(C[C@@H]1CC[C@@H]2[C@H](COC[C@H](O)CN2C(=O)Nc2cccc(Cl)c2)O1)N1CCCCC1 | 364
Cc1noc(C)c1NC(=O)Nc1ccc2c(c1)C(=O)N([C@H](C)CO)C[C@@H](C)[C@@H](CN(C)Cc1ccc(C(F)(F)F)cc1)OCCCC[C@@H](C)O2 | 2770
C[C@H](CO)N1C[C@H](C)[C@H](CN(C)Cc2ccc(C(=O)O)cc2)Oc2c(NC(=O)Nc3ccccc3)cccc2C1=O | 2460
COc1ccc(NC(=O)Nc2ccc3c(c2)C(=O)N([C@H](C)CO)C[C@@H](C)[C@H](CN(C)Cc2ccc(C(=O)O)cc2)OCCCC[C@@H](C)O3)cc1 | 3300
C[C@@H]1CCCCO[C@@H](CN(C)C)[C@@H](C)CN([C@@H](C)CO)C(=O)c2cc(NS(=O)(=O)c3ccc(Cl)cc3)ccc2O1 | 636
COc1ccc(NC(=O)Nc2ccc3c(c2)C(=O)N([C@@H](C)CO)C[C@@H](C)[C@H](CN(C)Cc2ccc(C(=O)O)cc2)OCCCC[C@H](C)O3)cc1 | 3740
C[C@@H]1CCCCO[C@H](CN(C)Cc2ccc(C(=O)O)cc2)[C@@H](C)CN([C@H](C)CO)C(=O)c2cc(NC(=O)Nc3ccc(C(F)(F)F)cc3)ccc2O1 | < 160
C[C@@H]1CCCCO[C@@H](CN(C)Cc2ccc3c(c2)OCO3)[C@@H](C)CN([C@H](C)CO)C(=O)c2cc(NS(=O)(=O)c3cccs3)ccc2O1 | < 80
C[C@@H]1CCCCO[C@@H](CN(C)Cc2ccccc2)[C@H](C)CN([C@H](C)CO)C(=O)c2cc(NS(=O)(=O)c3cccs3)ccc2O1 | 528
C[C@H]1CN([C@@H](C)CO)C(=O)c2cccc(NC(=O)Nc3ccc(C(F)(F)F)cc3)c2O[C@@H]1CN(C)CC1CC1 | 541
O=S(=O)(O)c1ccc(N2N=C(c3ccccc3)CC2c2ccccc2)cc1 (centres undefined) | 4310
C[C@H](CO)N1C[C@H](C)[C@H](CN(C)Cc2ccncc2)Oc2c(NC(=O)Nc3ccc(C(F)(F)F)cc3)cccc2C1=O | 704
C[C@@H]1CCCCO[C@H](CN(C)C)[C@H](C)CN([C@H](C)CO)C(=O)c2cc(NS(=O)(=O)c3ccc(Cl)cc3)ccc2O1 | 548
CNC[C@H]1OCCCC[C@@H](C)Oc2ccc(NS(=O)(=O)c3ccc(C)cc3)cc2C(=O)N([C@@H](C)CO)C[C@H]1C | 3420
COc1ccc(S(=O)(=O)Nc2ccc3c(c2)C(=O)N([C@@H](C)CO)C[C@H](C)[C@H](CN(C)C)OCCCC[C@@H](C)O3)cc1 | 419
C[C@@H]1CCCCO[C@@H](CN(C)Cc2ccc(C(=O)O)cc2)[C@@H](C)CN([C@H](C)CO)C(=O)c2cc(NC(=O)Nc3cccc4ccccc34)ccc2O1 | 408
COc1ccc(CNCc2c(O)c(Cl)cc3c(C)c(C)c(=O)oc23)c(OC)c1 | 2190
Cc1noc(C)c1S(=O)(=O)Nc1ccc2c(c1)C(=O)N([C@H](C)CO)C[C@H](C)[C@H](CN(C)Cc1ccc3c(c1)OCO3)OCCCC[C@@H](C)O2 | 2350
COc1cc2cc(C(=O)N3CCN(Cc4ccc5c(c4)OCO5)CC3)c(=O)oc2cc1OC | 4580
C[C@H](CO)N1C[C@H](C)[C@H](CN(C)C)Oc2c(NC(=O)Nc3ccc(C(F)(F)F)cc3)cccc2C1=O | 935
C[C@@H]1CCCCO[C@@H](CN(C)CC2CC2)[C@@H](C)CN([C@H](C)CO)C(=O)c2cc(NS(=O)(=O)c3ccc(Cl)cc3)ccc2O1 | 97.3
O=C(C[C@H]1CC[C@@H]2[C@H](COC[C@@H](O)CN2C(=O)Nc2cccc(Cl)c2)O1)N1CCCCC1 | 812

Same assay, conditions: ERAP1 enzyme, Leu-AMC fluorescence, 60 min; at 5.6 µM (top of the series)

SMILES | activity increase (activation)
Cc1cc2nc(-c3ccc[nH]c3=O)[nH]c2cc1C | -30.6% (inactive)
COC(=O)Cc1c(C)c2ccc(O)c(CNCc3ccc(OC)c(OC)c3)c2oc1=O | -74.1% (inactive)
O=c1ccc2cc(O[C@@H]3O[C@@H](CO)[C@H](O)[C@@H](O)[C@@H]3O)c(O)cc2o1 | -79.1% (inactive)
CC1CCN(Cc2cc(=O)oc3cc(O)c(Cl)cc23)CC1 | -36.5% (inactive)

Same assay, conditions: ERAP1 enzyme, Leu-AMC fluorescence, 60 min; at 11 µM (top of the series)

SMILES | activity increase (activation)
Cc1cc(=O)oc2cc(NS(=O)(=O)c3ccc(F)cc3)ccc12 | -52% (inactive)
CN(C)Cc1c(O)ccc2cc(-c3nc4ccccc4n3C)c(=O)oc12 | -107% (inactive)
Cc1c(C)c2ccc(O)c(CN3CCN(C)CC3)c2oc1=O | -52.8% (inactive)
CCc1cc(=O)oc2c(CNCc3c(F)cccc3Cl)c(O)ccc12 | -60.7% (inactive)
Cc1cc(=O)oc2c(CN3CCCCC3)c(O)ccc12 | -81.1% (inactive)
CCN(CC)Cc1c(O)ccc2cc(-c3nc4ccccc4n3C)c(=O)oc12 | -105% (inactive)
N#Cc1c(N2CCNCC2)nc(-c2ccco2)c2c1CCCC2 | -51.7% (inactive)
CN1CCCC1CCNc1ccc2c(=O)c3ccccc3oc2c1 (centres undefined) | -115% (inactive)
CCCCc1cc(=O)oc2cc(O)ccc12 | -62.4% (inactive)
COc1cc2ccc(=O)oc2cc1O | -97.7% (inactive)
Cc1c(Cc2ccccc2)c(=O)oc2cc(O)ccc12 | -39.3% (inactive)
CCc1c(C)c2cc(Cl)c(O)c(CN(C)C)c2oc1=O | -92.5% (inactive)
O=c1oc2cc(O)ccc2cc1S(=O)(=O)c1ccccc1 | 349% (inactive)
CCCCCCC[C@H](N)[C@H](O)C(=O)N(C)[C@@H](CCS(C)=O)C(=O)N[C@@H](Cc1ccc(O)cc1)C(=O)N[C@@H](Cc1ccc(O)cc1)C(=O)O (some centres undefined) | -57.4% (inactive)
NC(=NCCc1c[nH]c2ccccc12)NS(=O)(=O)c1cc(F)ccc1F | -59.5% (inactive)
Cc1c(CC(=O)N2CCN(C(=O)C3COc4ccccc4O3)CC2)c(=O)oc2cc(O)c(Cl)cc12 (centres undefined) | -33.4% (inactive)
O=c1oc2c(CN3CCN(CCO)CC3)c(O)ccc2cc1-c1ccccn1 | -80.1% (inactive)
CCc1c(C)c2cc(Cl)c(O)c(CN(CC)CC)c2oc1=O | -62.3% (inactive)
Cc1c(-c2ccccc2)c(=O)oc2cc(O)ccc12 | -87.3% (inactive)
COc1ccc(-c2cc3ccc(O)cc3oc2=O)cc1 | -75.7% (inactive)
